The assay addresses T1, FGR (Homo sapiens, UniProt P09769).
T1 construct: purchased Thermo Fisher Scientific (Life Technologies) SelectScreen
The assay can be described thus: SelectScreen Z'LYTE. The format is biochemical. An outline of the steps: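 NU5455 was profiled across the SelectScreen Broad panel of kinase activity and binding assays. Z'LYTE reactions such as CSF1R ran at apparent Km ATP, while the Adapta CAMK1 assay used ATP listed as 10. Values are given as percent.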

The values that follow come from article PMC6934184, “Selective DNA-PKcs inhibition extends the therapeutic index of localized radiotherapy and chemotherapy” (The Journal of Clinical Investigation, 2019).

T1 sequence (P09769 whole entry): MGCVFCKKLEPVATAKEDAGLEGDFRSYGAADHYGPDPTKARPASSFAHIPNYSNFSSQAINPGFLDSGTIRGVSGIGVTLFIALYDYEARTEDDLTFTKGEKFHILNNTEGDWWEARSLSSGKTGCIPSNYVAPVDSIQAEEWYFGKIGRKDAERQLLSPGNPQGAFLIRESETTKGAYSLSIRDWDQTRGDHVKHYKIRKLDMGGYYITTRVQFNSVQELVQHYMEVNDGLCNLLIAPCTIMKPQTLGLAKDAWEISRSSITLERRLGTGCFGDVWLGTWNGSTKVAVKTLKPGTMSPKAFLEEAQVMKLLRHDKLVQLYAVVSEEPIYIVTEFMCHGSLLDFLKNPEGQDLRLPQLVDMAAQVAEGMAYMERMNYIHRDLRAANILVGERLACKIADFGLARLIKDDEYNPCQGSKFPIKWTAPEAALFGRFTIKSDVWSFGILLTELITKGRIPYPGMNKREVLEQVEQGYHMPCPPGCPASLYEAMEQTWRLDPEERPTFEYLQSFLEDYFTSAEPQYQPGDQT

Turning to `CN(C(=O)CN1CCOCC1)c1ccc2sc3c(-c4cccc5c(=O)cc(N6CC7CCC(C6)O7)oc45)cccc3c2c1` [NU5455], the inhibition at 1 µM came to 12.1%.
